From PubChem BioAssay (NCI)
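Five compound concentrations were applied to cells in 96-well plates for 48 hours; endpoints were derived by simple linear interpolation of the resulting dose-response curve. Abbreviation: GI50, concentration required for 50% inhibition of growth. At the TGI there is no net growth.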

Legend:
Assay in all cases: NCI anticancer screen, dose series, 48 h
IGROV1 ovarian = tested on: IGROV1 ovarian
K-562 leukemia = tested on: K-562 leukemia
DU-145 prostate = tested on: DU-145 prostate
NCI-H460 lung = tested on: NCI-H460 lung
HCT-15 colon = tested on: HCT-15 colon
OVCAR-5 ovarian = tested on: OVCAR-5 ovarian
OVCAR-3 ovarian = tested on: OVCAR-3 ovarian
SF-268 CNS = tested on: SF-268 CNS
TK-10 renal = tested on: TK-10 renal

| Structure (SMILES) | TGI (IGROV1 ovarian) [µM] | TGI (K-562 leukemia) [µM] | TGI (DU-145 prostate) [µM] | TGI (NCI-H460 lung) [µM] | TGI (HCT-15 colon) [µM] | TGI (OVCAR-5 ovarian) [µM] | TGI (OVCAR-3 ovarian) [µM] | TGI (SF-268 CNS) [µM] | TGI (TK-10 renal) [µM] | GI50 (IGROV1 ovarian) [µM] | GI50 (DU-145 prostate) [µM] | GI50 (NCI-H460 lung) [µM] | GI50 (SF-268 CNS) [µM] | GI50 (HCT-15 colon) [µM] | GI50 (OVCAR-5 ovarian) [µM] | GI50 (TK-10 renal) [µM] | GI50 (OVCAR-3 ovarian) [µM] | GI50 (K-562 leukemia) [µM] |
| --- | --- | --- | --- | --- | --- | --- | --- | --- | --- | --- | --- | --- | --- | --- | --- | --- | --- | --- |
| OCC1OC(n2nc(-c3ccccc3)nc2-c2cnccn2)C(O)C(O)C1O (configuration not stated) | > 100 | > 100 | > 100 | > 100 | > 100 | > 100 | > 100 |  |  |  |  |  |  |  |  |  |  |  |
| C/C=C/[C@H]1O[C@@](O)([C@@H](C)[C@H](O)[C@H](C)[C@H]2OC(=O)/C(OC)=C/C(C)=C/[C@@H](C)[C@@H](O)[C@@H](CC)[C@@H](O)[C@H](C)C/C(C)=C/C=C/[C@@H]2OC)C[C@H](OC2CC(O)C(O)C(C)O2)[C@@H]1C (some centres not stated) | 17 |  | 15.1 | 4.81 | 8.8 | 15.1 | 6.27 | 25.6 | 18.9 |  |  |  |  |  |  |  |  |  |
| Nc1ccc(S(=O)(=O)Nc2nnc(S(N)(=O)=O)s2)cc1 |  |  | > 100 | > 100 | > 100 | > 100 |  | > 100 | > 100 |  |  |  |  |  |  |  |  |  |
| Oc1ccc(-c2csc(NNC3=NC/C(=C/c4ccc5c(c4)OCO5)S3)n2)cc1O | 65.3 |  | > 100 | > 100 | > 100 | > 100 |  |  | 72.4 |  |  |  |  |  |  |  |  |  |
| CCC1=NC(N/N=C/c2ccco2)=N/C1=C\c1ccccc1O | 93.1 | > 100 | > 100 | 73.6 | 42.7 | > 100 |  | > 100 | > 100 |  |  |  |  |  |  |  |  |  |
| N#CN=C(N)c1sc2nc3c(c(-c4ccc(Br)cc4)c2c1N)CCCC3 |  | > 100 | 71.9 | > 100 | 44.7 | > 100 |  | > 100 | > 100 |  |  |  |  |  |  |  |  |  |
| Cc1ccc(C2=Nc3cc(C)c(Cl)cc3S(=O)(=O)NN2)cc1 | > 100 | > 100 | > 100 | > 100 | > 100 |  | > 100 | > 100 | > 100 |  |  |  |  |  |  |  |  |  |
| COC(=O)c1c2c(cc3c1CC1(Cc4cc5c(c(C=O)c4C1)CCCC5)C3)CCCC2 (configuration not stated) | > 100 | 85.3 |  |  | > 100 | > 100 | > 100 |  | > 100 |  |  |  |  |  |  |  |  |  |
| CCOC(=O)c1cnn2c1ncc1c(=O)n(NC(N)=O)ccc12 | > 100 |  | > 100 | > 100 | > 100 | > 100 | > 100 | > 100 | > 100 |  |  |  |  |  |  |  |  |  |
| O=S(=O)(O)c1c(Cl)cc(O)c2ncccc12 | > 100 | > 100 | > 100 | > 100 | > 100 | > 100 | > 100 |  |  |  |  |  |  |  |  |  |  |  |
| CC(=O)[C@@H]1[C@@H](OC(=O)CCC(C)COC2OC(CO)C(O)C(O)C2O)C[C@H]2[C@@H]3CC=C4C[C@@H](OC5OC(CO)C(OC6OC(C)C(O)C(O)C6O)C(O)C5OC5OC(C)C(O)C(O)C5O)CC[C@]4(C)[C@H]3CC[C@]12C (some centres not stated) |  | > 100 | > 100 | > 100 |  | > 100 | > 100 | > 100 | > 100 |  |  |  |  |  |  |  |  |  |
| Cc1ccc2c3c1O[C@H]1c4[nH]c5ccccc5c4C[C@@]4(O)[C@@H](C2)N(C)CC[C@]314 | 34.9 | 36.8 | 39 |  | 32.5 | 38.2 |  | 34.7 |  |  |  |  |  |  |  |  |  |  |
| CC[C@@]1(N(C)C)C(=O)OCc2c1cc1n(c2=O)Cc2cc3ccccc3nc2-1 |  | > 100 | 98.1 | 50.6 | > 100 | > 100 | > 100 | 36.7 | > 100 |  |  |  |  |  |  |  |  |  |
| CCS(=O)(=O)N1CCC(C(C)n2c(C)c(C(=O)NCc3c(OC)cc(C)[nH]c3=O)c3ccccc32)CC1 (configuration not stated) | > 100 |  | > 100 | > 100 | > 100 | > 100 | > 100 | > 100 | > 100 | 57.6 | > 100 | > 100 | > 100 | > 100 | > 100 | > 100 | > 100 |  |
| O=C(Nc1cccc(-n2ccc3c(NC(=O)c4ccccc4)nccc32)c1)c1ccc(N2CCOCC2)c(C(F)(F)F)c1 | > 75.4 | > 100 |  | 26.9 | > 64.7 | > 100 | 0.0504 | > 100 | > 100 | 0.057 |  | 0.037 | 0.0625 | 0.037 | 0.188 | 0.0782 | 0.0233 | 0.0387 |
| O=C(Nc1nnc(-c2ccccc2)o1)C(SC(=S)N1CCCCC1)c1ccccc1 (configuration not stated) | > 100 | > 100 | 71.6 | 34.6 | 29.1 | 82.9 | 43.4 |  | > 100 |  |  |  |  |  |  |  |  |  |
